{"source": "patent US9233979B2", "about": "“Compounds that are ERK inhibitors” (Merck Sharp & Dohme Corp., priority 2012, dated 2016)", "target": "phosphorylated active hERK2 enzyme (Homo sapiens (Human), UniProt P28482)", "sequence (P28482 whole entry)": "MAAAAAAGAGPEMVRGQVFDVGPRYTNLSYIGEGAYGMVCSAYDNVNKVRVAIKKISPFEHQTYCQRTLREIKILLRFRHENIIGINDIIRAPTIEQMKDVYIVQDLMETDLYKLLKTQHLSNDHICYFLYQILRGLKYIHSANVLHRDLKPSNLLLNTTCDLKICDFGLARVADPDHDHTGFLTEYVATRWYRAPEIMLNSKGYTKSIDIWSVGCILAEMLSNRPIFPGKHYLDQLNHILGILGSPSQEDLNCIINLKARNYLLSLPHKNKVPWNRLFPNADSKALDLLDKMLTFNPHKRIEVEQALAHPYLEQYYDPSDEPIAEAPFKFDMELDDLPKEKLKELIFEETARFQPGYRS", "experiment": "Active Human ERK2 (hERK2) Activity Assay (IMAP-FP)", "type": "biochemical", "conditions": "Table 6, 0.5 nM hERK2, 30 μM ATP, 10 point titration, read-out: AERK2 IC50", "summary_of_the_method": "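IMAP fluorescence-polarization kinase assay: 0.5 nM activated hERK2 with 900 nM unlabeled plus 80 nM labeled peptide and 30 μM ATP, reacted 60 min. Quenched with IMAP beads in binding buffer with 24 mM NaCl; FP read after 60 min equilibration.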", "data": [{"smiles": "C[C@@H](NC(=O)Nc1cc2[nH]nc(N3CCc4ncsc4C3)c2cn1)c1ccccc1", "note": "[Example 123, 1-[3-(6,7-dihydro[1,3]thiazolo-[5,4-c]pyridin-5(4H)-yl)-1H-pyrazolo[4,3-c]pyridin-6-yl]-3-[(1R)-1-phenylethyl]urea]", "values": [{"measurement": "IC50", "result": 0.4, "unit": "nM"}]}, {"smiles": "CC(C)(O)[C@@H](NC(=O)Nc1cc2[nH]nc(N3CCc4ncsc4C3)c2cn1)c1ccccc1", "note": "[Example 124, 1-[3-(6,7-dihydro[1,3]thiazolo-[5,4-c]pyridin-5(4H)-yl)-1H-pyrazolo[4,3-c]pyridin-6-yl]-3-[(1S)-2-hydroxy-2-methyl-1-phenylpropyl]urea]", "values": [{"measurement": "IC50", "result": 0.3, "unit": "nM"}]}, {"smiles": "CC(C)(O)[C@@H](NC(=O)Nc1cc2[nH]nc(N3CCc4ncsc4C3)c2cn1)c1ccc(F)cc1", "note": "[Example 125, 1-[3-(6,7-dihydro[1,3]thiazolo-[5,4-c]pyridin-5(4H)-yl)-1H-pyrazolo[4,3-c]pyridin-6-yl]-3-[(1S)-1-(4-fluorophenyl)-2-hydroxy-2-methylpropyl]urea]", "values": [{"measurement": "IC50", "result": 0.4, "unit": "nM"}]}, {"smiles": "Cn1cc2c(n1)CCN(c1n[nH]c3cc(NC(=O)N[C@@H](c4ccc(F)cc4)C(C)(C)O)ncc13)C2", "note": "[Example 126, 1-[(1S)-1-(4-fluorophenyl)-2-hydroxy-2-methylpropyl]-3-(2′-methyl-2,′4,′6,′7′-tetrahydro-1H-3,5′-bipyrazolo[4,3-c]pyridin-6-yl)urea]", "values": [{"measurement": "IC50", "result": 0.2, "unit": "nM"}]}, {"smiles": "COC[C@@H](NC(=O)Nc1cc2[nH]nc(N3CCc4ncsc4C3)c2cn1)c1ccccc1", "note": "[Example 127, 1-[3-(6,7-dihydro[1,3]-thiazolo[5,4-c]-pyridin-5(4H)-yl)-1H-pyrazolo[4,3-c]pyridin-6-yl]-3-[(1S)-2-methoxy-1-phenylethyl]urea]", "values": [{"measurement": "IC50", "result": 0.3, "unit": "nM"}]}, {"smiles": "C[C@@H](NC(=O)Nc1cc2[nH]nc(NC(=O)N3CC(F)(F)C3)c2cn1)c1ccc(F)cc1", "note": "[Example 128, 3,3-difluoro-N-[6-({[(1R)-1-(4-fluorophenyl)ethyl]carbamoyl}amino)-1H-pyrazolo[4,3-c]pyridin-3-yl]-azetidine-1-carboxamide]", "values": [{"measurement": "IC50", "result": 3.4, "unit": "nM"}]}, {"smiles": "CC(C)(O)[C@@H](NC(=O)Nc1cc2[nH]nc(NC(=O)N3CC(F)(F)C3)c2cn1)c1ccc(F)cc1", "note": "[Example 129, 3,3-difluoro-N-[6-({[(1S)-1-(4-fluorophenyl)-2-hydroxy-2-methylpropyl]-carbamoyl}amino)-1H-pyrazolo[4,3-c]pyridin-3-yl]-azetidine-1-carboxamide]", "values": [{"measurement": "IC50", "result": 0.4, "unit": "nM"}]}, {"smiles": "CC(C)(O)[C@@H](NC(=O)Nc1cc2[nH]nc(NC(=O)N3CCC3)c2cn1)c1ccc(F)cc1", "note": "[Example 130, N-[6-({[(1S)-1-(4-fluorophenyl)-2-hydroxy-2-methylpropyl]-carbamoyl}amino)-1H-pyrazolo[4,3-c]pyridin-3-yl]-azetidine-1-carboxamide]", "values": [{"measurement": "IC50", "result": 0.5, "unit": "nM"}]}, {"smiles": "CC(C)(O)[C@@H](NC(=O)Nc1cc2[nH]nc(NC(=O)N3CCC(F)(F)C3)c2cn1)c1ccc(F)cc1", "note": "[Example 131, 3,3-difluoro-N-[6-({[(1S)-1-(4-fluorophenyl)-2-hydroxy-2-methylpropyl}-carbamoyl}amino)-1H-pyrazolo[4,3-c]pyridin-3-yl]-pyrrolidine-1-carboxamide]", "values": [{"measurement": "IC50", "result": 1.5, "unit": "nM"}]}, {"smiles": "CC(C)(O)[C@@H](NC(=O)Nc1cc2[nH]nc(NC(=O)N3CCC(F)(F)CC3)c2cn1)c1ccc(F)cc1", "note": "[Example 132, 4,4-difluoro-N-[6-({[(1S)-1-(4-fluorophenyl)-2-hydroxy-2-methylpropyl]-carbamoyl}amino)-1H-pyrazolo[4,3-c]pyridin-3-yl]-piperidine-1-carboxamide]", "values": [{"measurement": "IC50", "result": 4.9, "unit": "nM"}]}, {"smiles": "CC(C)(O)[C@@H](NC(=O)Nc1cc2[nH]nc(NC(=O)N3CCOCC3)c2cn1)c1ccc(F)cc1", "note": "[Example 133, N-[6-({[(1S)-1-(4-fluorophenyl)-2-hydroxy-2-methylpropyl]-carbamoyl}amino)-1H-pyrazolo[4,3-c]pyridin-3-yl]-morpholine-4-carboxamide]", "values": [{"measurement": "IC50", "result": 2.4, "unit": "nM"}]}, {"smiles": "C[C@@H](NC(=O)Nc1cc2[nH]nc(NC(=O)N3CC(C)(O)C3)c2cn1)c1ccccc1", "note": "[Example 134, 3-hydroxy-3-methyl-N-[6-({[(1R)-1-phenylethyl]-carbamoyl}-amino)-1H-pyrazolo[4,3-c]pyridin-3-yl]-azetidine-1-carboxamide]", "values": [{"measurement": "IC50", "result": 8.6, "unit": "nM"}]}, {"smiles": "CCNc1n[nH]c2c(C(F)(F)F)c(NC(=O)N[C@H](C)c3ccccc3)ncc12", "note": "[Example 135, (R)-1-(3-(ethylamino)-7-(trifluoromethyl)-1H-pyrazolo[4,3-c]pyridin-6-yl)-3-(1-phenylethyl)urea]", "values": [{"measurement": "IC50", "result": 382, "unit": "nM"}]}, {"smiles": "C[C@@H](NC(=O)Nc1cc2[nH]nc3c2c(n1)CCN3)c1ccccc1", "note": "[Example 136, (R)-1-(1-phenylethyl)-3-(1,3,4,5-tetrahydropyrazolo[3,4,5-de][1,6]naphthyridin-7-yl)urea]", "values": [{"measurement": "IC50", "result": 12.2, "unit": "nM"}]}, {"smiles": "CC(C)(O)[C@@H](NC(=O)Nc1cc2[nH]nc3c2c(n1)CCN3)c1ccccc1", "note": "[Example 137, (S)-1-(2-hydroxy-2-methyl-1-phenylpropyl)-3-(1,3,4,5-tetrahydropyrazolo[3,4,5-de][1,6]naphthyridin-7-yl)urea]", "values": [{"measurement": "IC50", "result": 1.3, "unit": "nM"}]}, {"smiles": "C[C@@H]1Cc2nc(NC(=O)N[C@H](C)c3ccccc3)cc3[nH]nc(c23)N1", "note": "[Example 138, 1-((R)-4-methyl-1,3,4,5-tetrahydropyrazolo[3,4,5-de][1,6]naphthyridin-7-yl)-3-((R)-1-phenylethyl)urea]", "values": [{"measurement": "IC50", "result": 5.9, "unit": "nM"}]}, {"smiles": "C[C@H]1Cc2nc(NC(=O)N[C@H](C)c3ccccc3)cc3[nH]nc(c23)N1", "note": "[Example 139, 1-((S)-4-methyl-1,3,4,5-tetrahydropyrazolo[3,4,5-de][1,6]naphthyridin-7-yl)-3-((R)-1-phenylethyl)urea]", "values": [{"measurement": "IC50", "result": 5.5, "unit": "nM"}]}, {"smiles": "CC(=O)N1CCc2nc(NC(=O)N[C@H](C)c3ccccc3)cc3[nH]nc1c23", "note": "[Example 140, (R)-1-(3-acetyl-1,3,4,5-tetrahydropyrazolo[3,4,5-de][1,6]naphthyridin-7-yl)-3-(1-phenylethyl)urea]", "values": [{"measurement": "IC50", "result": 111, "unit": "nM"}]}, {"smiles": "CCN1CCc2nc(NC(=O)N[C@H](C)c3ccccc3)cc3[nH]nc1c23", "note": "[Example 141, (R)-1-(3-ethyl-1,3,4,5-tetrahydropyrazolo[3,4,5-de][1,6]naphthyridin-7-yl)-3-(1-phenylethyl)urea]", "values": [{"measurement": "IC50", "result": 15.4, "unit": "nM"}]}, {"smiles": "CC(C)N1CCc2nc(NC(=O)N[C@H](C)c3ccccc3)cc3[nH]nc1c23", "note": "[Example 142, (R)-1-(3-isopropyl-1,3,4,5-tetrahydropyrazolo[3,4,5-de][1,6]naphthyridin-7-yl)-3-(1-phenylethyl)urea]", "values": [{"measurement": "IC50", "result": 1.2, "unit": "nM"}]}, {"smiles": "CNc1n[nH]c2cc(NC(=O)N[C@@H](c3ccccc3)[C@@H]3CCCO3)ncc12", "note": "[Example 144, 1-(3-(methylamino)-1H-pyrazolo[4,3-c]pyridin-6-yl)-3-((S)-phenyl((S)-tetrahydrofuran-2-yl)methyl)urea]", "values": [{"measurement": "IC50", "result": 2, "unit": "nM"}]}, {"smiles": "CNc1n[nH]c2cc(NC(=O)N[C@@H](c3ccccc3)[C@H]3CCCO3)ncc12", "note": "[Example 145, 1-(3-(methylamino)-1H-pyrazolo[4,3-c]pyridin-6-yl)-3-((S)-phenyl((R)-tetrahydrofuran-2-yl)methyl)urea]", "values": [{"measurement": "IC50", "result": 2.1, "unit": "nM"}]}, {"smiles": "CNc1n[nH]c2cc(NC(=O)N[C@H](c3ccccc3)[C@@H]3CCCO3)ncc12", "note": "[Example 146, 1-(3-(methylamino)-1H-pyrazolo[4,3-c]pyridin-6-yl)-3-((R)-phenyl((S)-tetrahydrofuran-2-yl)methyl)urea]", "values": [{"measurement": "IC50", "result": 115, "unit": "nM"}]}]}
